The values below are quoted from earlier work in patent publication US8652545B2, “Composition of a liquid dietary supplement to treat symptoms of autism spectrum disorders in children” (Reverta Health Solutions LLC, priority 2008, dated 2014).

For series [1] the following is noted: in vivo.
For series [2] the following is noted: in vivo. The source holds these as a separate data set.
For series [3], the system named is individuals diagnosed with autism. To be noted: high doses, given with magnesium; Nye and Brice (2005).

In the case of `CCNC(=O)CC[C@H](N)C(=O)O` [Theanine], in series [1], the sleep entry is recorded as “promote a more restful deep sleep” and the stress result is “reduce stress”. Besides, the “crossing of the blood-brain barrier” value in series [2] is “easily crosses the blood-brain barrier”.

`Cc1ncc(CO)c(CO)c1O.Cl` [vitamin B6, Vitamin B6]: in series [3], the “benefit in individuals diagnosed with autism” value is given as “extremely beneficial”.
